We go through three compounds from article PMC5218472 (PLoS Biology, 2017).

Residues, ends and D or L forms follow the SMILES beside them. No end group written: not given here. *: point of attachment. αGalNAc = CC(=O)N[C@@H]1[C@@H](O)[C@@H](O)[C@@H](CO)O[C@@H]1*

The subject of the data set is T1, ADAM17.
T1 construct: catalytic domain (aa Pro-18 to Val-477) of ADAM17; purchased Enzo Life Sciences GmbH (Lörrach, Germany)
Description: In vitro cleavage assay of IL-6R (glyco)peptides with recombinant ADAM17. Conditions: human, isolated enzyme, pH 9. The protocol:
Fig 7 The N- and O-glycosylated sequon adjacent to the cleavage site is of minor importance for IL-6R cleavage. (A) Amino-acid sequence of the two unglycosylated peptides 1(QD) and 2(QA). Peptides were incubated either with or without recombinant ADAM17 for 16 h at 37°C, and the amount of cleaved peptide was analyzed by reversed-phase (RP) chromatography. (B) Amino-acid sequence of the two glycopeptides 3(QD) and 4(QA), which have a GlcNAc attached to the amino-acid residue corresponding to Asn-350 of the IL-6R. Cleavage was determined as described in panel (A). (C) Amino-acid sequence of the two glycopeptides 5(QD) and 6(QA), which have a biantennary N-glycan attached to the amino-acid residue corresponding to Asn-350 of the IL-6R. Cleavage was determined as described in panel (A). (D) Amino-acid sequence of the two glycopeptides 7(QD) and 8(QA), which have a GalNAc attached to the amino-acid residue corresponding toThr-352 of the IL-6R. Cleavage was determined as described in panel (A). (E) Amino-acid sequence of the two glycopeptides 9(QD) and 10(QA), which have a biantennary N-glycan attached to the amino-acid residue corresponding to Asn-350 and a GalNAc attached to the amino-acid residue corresponding toThr-352 of the IL-6R. Cleavage was determined as described in panel (A). All data shown are the mean ± SD from three independent experiments (*p < 0.05, **p < 0.01, ***p < 0.001, compared to the untreated peptide; ^§p < 0.05, compared to the cleaved nonglycosylated peptide).
Two 1.5 ml reaction tubes were filled with 50 μl peptide (50 μM) solved in 25 mM Hepes (pH 9.0), and 0.5 μl of the recombinant catalytic domain of ADAM17 was added to one of the reaction tubes, whereas the other sample remained untreated. All samples were incubated for 16 h at 37°C. Afterwards, 1,150 μl 0.1% TFA was added to each sample, and the peptides were separated on a reverse phase chromatography column (Multo High Bio-200-C18) from Chromatographie Service (Langerwehe, Germany) using a linear gradient elution with a binary solvent system and a flow rate of 1 ml/min. Solvent A consisted of 0.1% TFA, and solvent B consisted of 100% ACN. After peak integration, peak areas for cleaved and noncleaved peptides were determined.
With `CC[C@H](C)[C@H](NC(=O)[C@@H](N)CC(N)=O)C(=O)N[C@@H](CC(C)C)C(=O)N[C@@H](Cc1ccccc1)C(=O)N[C@@H](CCCNC(=N)N)C(=O)N[C@@H](CC(=O)O)C(=O)N[C@@H](CO)C(=O)N[C@@H](C)C(=O)N[C@@H](CC(N)=O)C(=O)N[C@@H](C)C(=O)N[C@H](C(=O)N[C@@H](CO)C(=O)N[C@@H](CC(C)C)C(=O)N1CCC[C@H]1C(=O)N[C@H](C(=O)N[C@@H](CCC(N)=O)C(=O)N[C@@H](C)C(=O)N[C@@H](CO)C(=O)N[C@@H](CO)C(=O)N[C@@H](CO)C(=O)N[C@H](C(=O)N1CCC[C@H]1C(=O)N[C@@H](CC(C)C)C(=O)N1CCC[C@H]1C(=O)O)C(C)C)C(C)C)[C@@H](C)O[C@H]1O[C@H](CO)[C@H](O)[C@H](O)[C@H]1NC(C)=O` [8(QA)] (H-NILFRDSANAT(αGalNAc)SLPVQASSSVPLP-OH), the share remaining at 16 h, 50 μM was 10.8%. The value for NILFRDSANATSLPVQASSSVPLP [2(QA)] was 0.93%. The figure for NILFRDSANATSLPVQDSSSVPLP [1(QD)] is 86%.

Usually share remaining stands for the share of the starting amount still present when the sample was taken.
